13 compounds from patent US6861432B2, “Piperazine derivatives that destabilize androgen receptors” (Schering Aktiengesellschaft, priority 2001, dated 2005) can be followed below.

One test deals with seminal vesicles. Description: Model 4: Antiandrogenic action on testosterone-stimulated growth of accessory sexual glands of castrated mice. In kind it is in vivo. The following applies: testosterone propionate 0.03 mg/mouse, test substance 2 × 30 mg/kg s.c., 7 days, CPA 30 mg/kg s.c., bicalutamide from preceding tests. The procedure:
The function and the size of accessory sexual glands (prostate and seminal vesicles) depend on androgens. In castrated animals, a growth of these (organs is induced by androgen administration. The simultaneous treatment with antiandrogens inhibits this growth, depending on the dose.
To examine the test substances, the mice were castrated. The treatment with testosterone propionate (0.03 mg/mouse) and the test substances (formulated 2×daily 30 mg/kg s.c. in benzyl benzoate-castor oil (10:90)) was on the same day. The treatment was carried out over 7 days and at the end of the test, the weights of the seminal vesicles and prostates were determined. The inhibition, in percent, of the seminal vesicle growth was calculated relative to the control groups (with and without testosterone). As a reference substance, cyproterone acetate (30 mg/kg s.c.) was used.

A further test concerns the target T1, androgen receptor (Homo sapiens, UniProt P10275, T878A).
T1 construct: 2*10^6 LNCaP cells in 6 ml of RPMI 1640 without phenol red are grown; endogenous in cells; host or cells: LNCaP (human prostate cell line)
T1 sequence (P10275 1-920 T878A): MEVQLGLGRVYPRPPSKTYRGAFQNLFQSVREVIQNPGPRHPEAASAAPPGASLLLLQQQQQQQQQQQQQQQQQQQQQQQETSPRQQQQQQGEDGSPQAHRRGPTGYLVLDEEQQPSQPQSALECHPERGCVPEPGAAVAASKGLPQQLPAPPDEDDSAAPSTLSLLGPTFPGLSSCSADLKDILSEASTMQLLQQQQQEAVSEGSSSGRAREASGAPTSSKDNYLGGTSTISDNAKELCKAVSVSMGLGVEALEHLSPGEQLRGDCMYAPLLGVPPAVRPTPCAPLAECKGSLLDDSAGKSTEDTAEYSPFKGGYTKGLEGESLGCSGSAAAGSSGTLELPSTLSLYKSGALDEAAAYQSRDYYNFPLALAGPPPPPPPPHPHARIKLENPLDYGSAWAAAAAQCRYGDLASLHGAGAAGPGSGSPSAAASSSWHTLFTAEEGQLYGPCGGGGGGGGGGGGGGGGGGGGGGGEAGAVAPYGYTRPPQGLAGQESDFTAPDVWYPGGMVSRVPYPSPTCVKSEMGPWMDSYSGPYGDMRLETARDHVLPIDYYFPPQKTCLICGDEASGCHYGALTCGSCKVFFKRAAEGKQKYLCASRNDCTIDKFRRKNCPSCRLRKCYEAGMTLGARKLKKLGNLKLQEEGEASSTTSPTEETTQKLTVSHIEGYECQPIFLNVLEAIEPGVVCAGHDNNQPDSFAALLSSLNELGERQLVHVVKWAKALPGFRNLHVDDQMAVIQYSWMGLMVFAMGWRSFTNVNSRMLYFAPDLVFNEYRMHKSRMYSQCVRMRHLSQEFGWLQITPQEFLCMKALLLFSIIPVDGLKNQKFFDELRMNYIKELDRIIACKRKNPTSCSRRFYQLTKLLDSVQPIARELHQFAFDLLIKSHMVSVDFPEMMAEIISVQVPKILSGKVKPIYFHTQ
Description: cell-based. Conditions: for remaining activity at 10 µM / remaining activity at 1 µM: LNCaP, 48 h; for remaining activity at 10 µM: read-out: AR Content [%] At 10 μM; for remaining activity at 1 µM: read-out: AR Content [%] At 1 μM; for AR Content [%]: LNCaP cells, R-1881 at 10 nM, percentage of DMSO control.

The test system of another test is A431 cells. Description: Model 3: Proliferation of non-prostate cells, A431. In kind it is cell-based, human. The following applies: 10 μM, 3-day treatment; percent of cell growth of solvent control. The procedure:
(§1) To examine the growth-inhibiting action of test substances in cells that are not of prostatic origin, MaTu cells, MaTu/Adr cells, HaCaT cells and A431 cells were treated with test substances, whereby
(§2) Depending on the cell line, 1000-4000 cells/well were grown in RPMI 1640 medium (A431; MaTu and MaTu/Adr) or DMEM/HAM'SF12 medium (HaCaT) without phenol red with 2 mmol of L-glutamine and 10% CCS, and after a 24-hour incubation, they were treated with various concentrations of test substances diluted in culture medium. After a 3-day treatment period, the number of cells was determined by crystal violet assay, as in Model 2. The solvent control contained 0.1% ethanol.
(§3) The substances were tested at a concentration of 10 μM, and the data correspond to the proportion, in percent, of the cell growth of the solvent control. It turns out that the test substances exerted no inhibitory action on the four different cell lines or, in individual cases, only a slight inhibitory action.

Another test concerns HaCaT cells. Put plainly: Model 3: Proliferation of non-prostate cells, HaCaT. Type of test: cell-based, human. The following applies: 10 μM, 3-day treatment; percent of cell growth of solvent control. The procedure:
as §1, §2, §3

The test system of the next test is MaTu cells. Description: Model 3: Proliferation of non-prostate cells, MaTu. Conditions: 10 μM, 3-day treatment; percent of cell growth of solvent control. In kind it is cell-based, human. The procedure: as §1, §2, §3
Another test concerns MaTu/Adr cells. Description: Model 3: Proliferation of non-prostate cells, MaTu/Adr. Type of test: cell-based, human. Conditions: 10 μM, 3-day treatment; percent of cell growth of solvent control. As to the method:
as §1, §2, §3

In the next test the test system is LNCaP cells. Description: Model 2: Inhibition of the proliferation of LNCaP cells (crystal violet assay; antagonism with 0.1 nM R1881, agonism without). Type of test: cell-based, human. The following applies: for IC50: LNCaP proliferation in the presence of 0.1 nM R1881, 7-8 days, read-out: IC50 [10^−7 M]; for % Inhibition at 1 μM: LNCaP proliferation, 1 μM substance, compared to cell growth in the presence of 0.1 nM R1881.

Broadly, the IC50 is the concentration at which inhibition is half-maximal. A word on the % Inhibition: it is the drop in the measured response relative to a control, in per cent.

Where two headings read alike, the source gives them in different places.

For `CC(=O)O[C@]1(C(C)=O)CC[C@H]2[C@@H]3C=C(Cl)C4=CC(=O)[C@@H]5C[C@@H]5[C@]4(C)[C@H]3CC[C@@]21C` [CPA, 17-(acetyloxy)-6-chloro-1β,2β-dihydro-3′H-cyclopropa[1,2]pregna-1,4,6-triene-3,20-dione, reference compound], the “% Inhibition of the MSB Growth” value with seminal vesicles is 85%.
On to `CC1=C(CCCCN2CCN(C(=O)c3ccccc3Cl)CC2)C(=O)N(c2ccc(C#N)c(C(F)(F)F)c2)C1=O` [Example 90, 4-[3-[4-[4-(2-Chlorobenzoyl)piperazin-1-yl]butyl]-2,5-dihydro-4-methyl-2,5-dioxo-1H-pyrrol-1-yl]-2-(trifluoromethyl)benzonitrile], for which the remaining activity at 10 µM at androgen receptor amounted to 34%. In addition, the “Proliferation in the Cell Line A431” value in the test on A431 cells is 98 +/− 7%. The “Proliferation in the Cell Line HaCaT” value with HaCaT cells is listed as 102 +/− 12%. The “Proliferation in the Cell Line MaTu” value in the test with MaTu cells was 96 +/− 3%. Moreover, in the test on MaTu/Adr cells, the “Proliferation in the Cell Line MaTu/Adr” value is on record as 80 +/− 2%.
On to `COc1ccccc1C(=O)N1CCN(CCCCCCC2=C(C)C(=O)N(c3ccc(C#N)c(C(F)(F)F)c3)C2=O)CC1` [Example 248, 4-[2,5-Dihydro-3-[6-[4-(2-methoxybenzoyl)piperazin-1-yl]hexyl]-4-methyl-2,5-dioxo-1H-pyrrol-1-yl]-2-(trifluoromethyl)benzonitrile], for which, on androgen receptor, the remaining activity at 1 µM came out at 51% and the remaining activity at 10 µM is 22%. Besides, in the test with A431 cells, the “Proliferation in the Cell Line A431” value is 102 +/− 5%. In the test on HaCaT cells, the “Proliferation in the Cell Line HaCaT” value is on record as 104 +/− 7%. In the test on LNCaP cells (Homo sapiens), the IC50 stood at 250 nM. In the test on MaTu cells, the “Proliferation in the Cell Line MaTu” value is on record as 98 +/− 4%. In the test with MaTu/Adr cells, the “Proliferation in the Cell Line MaTu/Adr” value was 88 +/− 4%.
With `CC1=C(CCCCCCN2CCN(C(=O)Nc3ccccc3)CC2)C(=O)N(c2ccc(C#N)c(C(F)(F)F)c2)C1=O` [Example 315, 4-[6-[1-[4-Cyano-3-(trifluoromethyl)phenyl]-2,5-dihydro-4-methyl-2,5-dioxo-1H-pyrrol-3-yl]hexyl]-N-phenylpiperazine-1-carboxamide], the remaining activity at 10 µM at androgen receptor came out at 52%. Also, the “Proliferation in the Cell Line A431” value with A431 cells was 95 +/− 5%. Further, the “Proliferation in the Cell Line HaCaT” value with HaCaT cells is recorded as 102 +/− 6%. In the test with LNCaP cells (Homo sapiens), the IC50 worked out at 380 nM. The “Proliferation in the Cell Line MaTu” value in the test with MaTu cells is reported as 95 +/− 7%. The “Proliferation in the Cell Line MaTu/Adr” value in the test with MaTu/Adr cells is reported as 90 +/− 10%.
Take `CC(CN1C(=S)N(c2ccc(C#N)c(C(F)(F)F)c2)C(=O)C1(C)C)N1CCN(C(=O)c2cccs2)CC1` (centres unmarked) [Example 524, 4-[4,4-Dimethyl-5-oxo-3-[2-[4-[(thien-2-yl)carbonyl]-piperazin-1-yl]propyl]-2-thioxoimidazolidin-1-yl]-2-(trifluoromethyl)benzonitrile]: at androgen receptor, the remaining activity at 1 µM was found to be 61%.
For `CC(C)C(=O)N1CCN(CCCCN2C(=S)N(c3ccc(C#N)c(C(F)(F)F)c3)C(=O)C2(C)C)CC1` [Example 546, 4-[4,4-Dimethyl-3-[4-[4-(2-methyl-1-oxopropyl)piperazin-1-yl]butyl]-5-oxo-2-thioxoimidazolidin-1-yl]-2-(trifluoromethyl)benzonitrile], the remaining activity at 1 µM on androgen receptor came to 68%. For the same compound, the “% Inhibition of the MSB Growth” value with seminal vesicles came out at 98%.
In the case of `CCS(=O)(=O)N1CCN(CCCCCN2C(=S)N(c3ccc(C#N)c(C(F)(F)F)c3)C(=O)C2(C)C)CC1` [Example 629, 4-[3-[5-[4-(Ethylsulfonyl)piperazin-1-yl]pentyl]-4,4-dimethyl-5-oxo-2-thioxoimidazolidin-1-yl]-2-(trifluoromethyl)benzonitrile], on androgen receptor, the remaining activity at 1 µM was found to be 54%. For the same compound, the “% Inhibition of the MSB Growth” value in the test on seminal vesicles amounted to 98%. The IC50 in the test on LNCaP cells (Homo sapiens) came to 140 nM.
For `CC1(C)C(=O)N(c2ccc(C#N)c(C(F)(F)F)c2)C(=S)N1CCCCCN1CCN(S(=O)(=O)c2ccc(C#N)cc2)CC1` [Example 632, 4-[3-[5-[4-[(4-Cyanophenyl)sulfonyl]piperazin-1-yl]pentyl]-4,4-dimethyl-5-oxo-2-thioxoimidazolidin-1-yl]-2-(trifluoromethyl)benzonitrile], the remaining activity at 1 µM on androgen receptor came out at 75%.
As to `CC(C)C(=O)N1CCN(CCCCCCN2C(=S)N(c3ccc(C#N)c(C(F)(F)F)c3)C(=O)C2(C)C)CC1` [Example 653, 4-[4,4-Dimethyl-3-[6-[4-(2-methyl-1-oxopropyl)piperazin-1-yl]hexyl]-5-oxo-2-thioxoimidazolidin-1-yl]-2-(trifluoromethyl)benzonitrile], the remaining activity at 1 µM at androgen receptor amounted to 71%.
On to `CC(C)(O)C(=O)N1CCN(CCCCCCN2C(=S)N(c3ccc(C#N)c(C(F)(F)F)c3)C(=O)C2(C)C)CC1` [Example 656], for which, in the test with LNCaP cells, the IC50 came out at 26 nM and the “% Inhibition at 1 μM” value worked out at 99%.
Regarding `CC1(C)C(=O)N(c2ccc(C#N)c(C(F)(F)F)c2)C(=S)N1CCCCCCN1CCN(C(=O)C(F)(F)F)CC1` [Example 670, 4-[4,4-Dimethyl-5-oxo-2-thioxo-3-[6-[4-(trifluoracetyl)piperazin-1-yl]hexyl]-imidazolidin-1-yl]-2-(trifluoromethyl)-benzonitrile], in the test with LNCaP cells, the 50% inhibitory concentration (IC50) is 24 nM and the “% Inhibition at 1 μM” value was 96%.
`CSC(=O)N1CCN(CCCCCCN2C(=S)N(c3ccc(C#N)c(C(F)(F)F)c3)C(=O)C2(C)C)CC1` [Example 696, S-Methyl 4-[6-[3-[4-cyano-3-(trifluoromethyl)phenyl]-5,5-dimethyl-4-oxo-2-thioxoimidazolidin-1-yl]hexyl]piperazine-1-carbothioate]: at androgen receptor, the remaining activity at 1 µM was determined as 60%. Moreover, the “% Inhibition of the MSB Growth” value with seminal vesicles turned out to be 87%.
Take `C[C@]1(O)CC[C@H]2[C@@H]3CCC4=CC(=O)CCC4=C3C=C[C@@]21C` [Example R-1881, 17β-hydroxy-17α-methylestra-4,9,11-trien-3-one, reference compound]: the figures for the “AR Content [%]” value at androgen receptor and on androgen receptor (listed as R1881) were 250% and “stabilizes the AR protein”, respectively.
